Data on six compounds can be found in US8173604B2, “Inhibition of Skp2-cyclin a interaction” (Albert Einstein College of Medicine of Yeshiva University, priority 2006, dated 2012).

“Also recorded” adds a separate entry of the source. Numbered stars: 1 amine (or outer) side, 2 acyl side, 3 side chain; on linkers, the order of the positions; unused ones are H or OH. Bridge positions count the residues as written; N and C are the ends. Square brackets hold non-standard residues; d marks the D form. Peptide text beside a SMILES is read from it. I, II: the chains in the order shown. Actinocin(9to1) = Cc1c2oc3c(C)ccc(C(=O)[*:1])c3nc-2c(C(=O)[*:2])c(N)c1=O; NMeV = CN[C@H](C(=O)O)C(C)C; Sar = CNCC(=O)O

Assay [1] has as its system U2OS cells. In words: Flow cytometry cell cycle profile after actinomycin D. Type of assay: cell-based, human. To be noted: actinomycin D 180 nM, 20 hours. On the procedure: Drug treatment and various routine assays. Actinomycin D (Sigma) treatment was for 20-22 hours at 180 nM. To arrest HeLa cells in mitotic phase, cells were treated with 100 ng/ml nocodazole (Sigma) for 16-17 hours. Western blotting, immunoprecipitation, indirect immunofluorescence, and flow cytometry analysis to determine cell cycle profiles were all performed with standard protocols and as described previously (Ji et al., 2004).
The AAAA mutation compromises Skp2's proliferation stimulatory activity without affecting its ability to cause degradation of cellular p27 and p21. […] Similar to the experiment shown in FIG. 6B, U2OS cells were treated with actinomycin D, which led to activation of p53, stimulation of p21 expression, and G1 cell cycle arrest manifested by a 20% increase in G1 phase cells (FIGS. 9A and B). Skp2 was overexpressed in U2OS cells to determine whether Skp2 could counter the G1 cell cycle arrest mediated by this actinomycin D triggered checkpoint.

The target in assay [2] is T1, cyclin A/Cdk2 (Homo sapiens, UniProt P20248+P24941).
T1 construct: made in house; host or cells: insect cells (baculovirus)
The assay can be described thus: In vitro cyclin A/Cdk2 kinase assay with purified proteins (GST-Rb-C substrate). To be noted: for Preventing Skp2N from protecting cyclin A/Cdk2 from inhibition by p27: cyclin A/Cdk2 3 nM, p27 5 nM, Skp2N 80 nM, increasing amounts of peptide. Type of assay: biochemical. On the procedure: (§1) Cyclin A/Cdk2 kinase assays were performed as described previously (Ji et al., 2004). Both immuno-purified myc-cyclin A/Cdk2 on beads and GST-purified and eluted GST-cyclin A/Cdk2 (baculovirus vectors for GST-cyclin A and Cdk2 were provided by Brian Dynlacht) were used. The amounts of purified proteins were determined by comparing them with known amounts of standard proteins in Coomassie blue stained gels. Phosphorylation of GST-Rb-C was quantified with the ImageQuant software. The Ki of various proteins was determined by non-linear least squares analysis. To determine the amounts of various proteins in synchronized HeLa cells, extracts representing 7.5×10^4 HeLa cells were resolved with known amounts of purified proteins and compared in the same Western blots. Actual amounts of proteins in 7.5×10^4 HeLa cells were then determined (for example, the amounts of p27, Skp2, and cyclin A in 7.5×10^4 HeLa cells were determined to be about 0.1, 0.2, and 0.1 pmoles, respectively, at 14 hours post-replating; and about 0.01, 0.1, and 1.0 pmoles, respectively, at 19 hours post-replating).
For kinase reactions, insect cell-produced and purified GST-cyclin A/Cdk2 was used at a concentration of ˜3 nM, which was the lowest concentration that yielded readily detectible phosphorylation of GST-Rb-C here. Purified p27, GST-Skp2, and Skp2N were titrated into the kinase reaction over a wide range of concentrations (FIGS. 7A, B, and C). Phosphorylation of Rb-C was measured and plotted, and the Ki of these various proteins were determined by non-linear least squares analysis (FIG. 7F).
Since Skp2 competes with p27 for binding to cyclin A and Skp2's Ki is about 100-fold higher than p27's Ki, it can be reasoned that, at concentrations well below its Ki, Skp2 might be able to protect cyclin A/Cdk2 from inhibition by p27. To test this hypothesis, the same cyclin A/Cdk2 kinase assay was carried out to determine the inhibitory activity of p27 in the presence of 80 nM of Skp2N.
It was then determined whether the 4060 peptide could prevent Skp2N from protecting cyclin A/Cdk2 from inhibition by p27. […] When 80 nM of Skp2N was included, 5 nM of p27 lost its ability to inhibit the kinase activity (lane 3). […] These findings indicate that the Skp2-cyclin A interaction is also a potential target to inhibit cyclin A kinase activity in tumor cells, particularly those overexpressing Skp2.
To test this prediction, various peptides were added to an in vitro kinase reaction with purified cyclin A/Cdk2 (˜3 nM concentration). An E2F1-derived RxL peptide, LDL peptide, was used for comparison since it could inhibit cyclin A/Cdk2 kinase activity (Sun et al., 2006, and see next section). Since a TAT sequence was later added to these peptides for trans-membrane delivery (see next section), two versions of each peptide (without TAT and with TAT) was used in these kinase assays. These two versions of peptides yielded identical results and therefore only presented results with one version of the peptides.
The effects of the 4060 peptide on cyclin A/Cdk2 kinase activity in the presence of Skp2 and p27 were then determined.

In assay [3] the test system is U2OS cells. To be noted: for Cell killing effect: twenty four hours after addition of peptides. On the procedure: It is currently unknown how peptide concentrations in the culture media translate into intro-cellular peptide concentrations.
Whether artificial manipulation of Skp2 protein levels in U2OS cells could change the IC50 of various peptides was also investigated.
(§2) Cell proliferation and survival assays. For the cell proliferation assay shown in FIG. 10D, 1×10^4 cells were plated in each well of 24 well plates and allowed to grow for a course of four days in the presence of 10% FBS. Cell numbers were counted every day from triplet wells. For cell survival assays in FIGS. 13, 14 and 15, 1×10^3 cells were plated in each well of 96 well plates and allowed to adhere overnight in the presence of 10% FBS. The cells were washed once with Opti-MEM (GIBCO) followed by incubation with different concentrations of peptides in Opti-MEM for 24 hours in triplicate. MTS assay was then performed following manufacturer's protocol (Promega).

Assay [4] relates to human diploid fibroblasts WI-38. The assay can be described thus: Cell survival MTS assay, WI-38. Type of assay: cell-based. As to conditions: 120 μM, 24 hours. On the procedure:
In comparison, both TAT-Umt and TAT-4060 inhibited cyclin A/Cdk2 kinase activity in vitro at peptide concentrations of 100 μM (FIG. 11B). It is currently unknown how peptide concentrations in the culture media translate into intro-cellular peptide concentrations.
as §2

The target in assay [5] is T2, interaction between cellular Skp2 and cyclin A/Cdk2 (Homo sapiens, UniProt P20248).
T2 construct: endogenous in cells; host or cells: U2OS
The assay can be described thus: Coimmunoprecipitation with cyclin A from peptide-treated U2OS cells. The class given is cell-based. To be noted: 50 μM peptide, twelve hours. On the procedure: FIG. 12 is photographs of western blots and kinase assays and graphs showing the effects of trans-membrane delivery of the 4060 peptide. In Panel A, U2OS cells were treated with 50 μM of indicated peptide for twelve hours. Cell extracts were prepared for immunoprecipitation and Western blot analysis as indicated. […] In Panel C, the same extracts were used in IP-kinase assays as indicated. The extent of phosphorylation was quantified and plotted.
The loss of Skp2-cyclin A/Cdk2 interaction was not due to a reduction in levels of these proteins (FIG. 12B). Importantly, cellular p27 protein levels were not affected by the blocking peptide. […] Here, it is important to point out that although we used p27 as an inhibitor of cyclin A-associated kinase activity in purified kinase reactions with the 4060 blocking peptide shown in FIG. 11, the effects of blocking Skp2-cyclin A interaction on cyclin A-associated kinase activity in cells is unlikely to be mediated by p27 alone. There was no significant interaction between p27 and cyclin A in U2OS cells before and after treatment of TAT-4060. p27 family members p21 and p57, and the pocket proteins p107 and p130 (Adams et al., 1996) may bind and inhibit cyclin A-associated kinase activity through the RxL-HP interaction mechanism. […]

For assay [6], the target named is T1, cyclin A/Cdk2. In words: IP-kinase assay with myc-cyclin A/Cdk2 transfected 293T cell extract. Type of assay: biochemical. As to conditions: increasing amounts of peptide. On the procedure: In panel A, an IP-kinase assay was performed with myc-cyclin A/Cdk2 transfected 293T cell extract in the presence of increasing amounts of RxL or 4060 peptides. Phosphorylation of GST-Skp2N is visible in this gel. […] As indicated, increasing amounts of the 4060 or 4060AAAA peptides were included in the reactions. Phosphorylation of Rb-C was quantified and plotted as shown.
as §1, with “To determine the amounts of various proteins in synchronized HeLa cells, extracts representing 7.5×10^4 HeLa cells were resolved with known amounts of purified proteins and compared in the same Western blots.” left out, “post-replating). […]” for “post-replating).”

Assay [7] concerns the target T3, Skp2-cyclin A interaction (Homo sapiens, UniProt P20248).
T3 construct: expressed in transfected cells; host or cells: 293T (cyclin A/Cdk2)
The assay can be described thus: GST pull-down, blocking of Skp2-cyclin A interaction by peptides. To be noted: for Blocking of Skp2N-cyclin A interaction: GST-Skp2N, myc-cyclin A/Cdk2 transfected 293T cell extracts. Type of assay: binding. On the procedure: GST pull down, p27 ubiquitylation assay, and cyclin A kinase assay. GST fusion proteins were purified on GSH-beads (Amersham), which were then incubated with transfected cell extracts for 1 hour in 4° C. with rocking. The beads were washed three times with lysis buffer (25 mM Hepes pH 7.6, 100 mM KCl, 0.1 mM EDTA, 10 mM MgCl2, 0.1% NP-40, 10% glycerol, 1 mM DTT) before analysis by SDS-PAGE and Western blotting.
Skp2-cyclin A interaction and p27-cyclin A interaction can be blocked by distinct peptides. An important aspect of the RxL-1-IP interaction is that it can be blocked by a short RxL peptide (Adams et al., 1996). If the Skp2-cyclin A/Cdk2 interaction and the p27-cyclin A/Cdk2 interaction are mediated by different sequences on both sides of the interaction, as shown above, it can be predicted that the RxL peptide should not block Skp2-cyclin A interaction. […] Peptide concentrations required for their respective blocking activities were similar for RxL and 4060 peptides.

Regarding `Cc1c2oc3c(C)ccc(C(=O)N[C@@H]4C(=O)N[C@H](C(C)C)C(=O)N5CCC[C@H]5C(=O)N(C)CC(=O)N(C)[C@@H](C(C)C)C(=O)O[C@@H]4C)c3nc-2c(C(=O)N[C@@H]2C(=O)N[C@H](C(C)C)C(=O)N3CCC[C@H]3C(=O)N(C)CC(=O)N(C)[C@@H](C(C)C)C(=O)O[C@@H]2C)c(N)c1=O` [actinomycin D, Actinomycin D] (I: T[dV]P[Sar][NMeV] / II: T[dV]P[Sar][NMeV]; ester I:1-I:C, II:1-II:C; linker I:N-II:N via Actinocin(9to1)), the “Increase in G1 phase cells” value in the assay on U2OS cells [1] was found to be 20%.
In the case of “YGRKKRRQRRRGETDHQYLAESS (TAT-Umt) [negative control peptide, reference compound]”, in the assay with cyclin A/Cdk2 [2] (1 μM and 10 μM peptide), the “Inhibitory effect on cyclin A/Cdk2 kinase activity” value is “did not show inhibitory effect”. For the same compound, the “Inhibition of cyclin A/Cdk2 kinase activity” value in the assay with cyclin A/Cdk2 [2] (100 μM peptide) is reported as “significant inhibition”. The “Cell killing effect at 120 μM” value with U2OS cells [3] (120 μM) is given as “did not exhibit cell killing effects”. In addition, in the assay with U2OS cells [3] (U2OS), the “Change of peptide effect by Skp2 knockdown or overexpression” value was “not affected by Skp2 knockdown or overexpression” and the Cell killing effect entry was “did not have cell killing effects”. Further, the WI-38 cells killed result in assay [4] is listed as “no effect”.
In the case of “YGRKKRRQRRRGKTSEAASGMGVAAAEKEE (TAT-4060AAAA) [reference compound]”, the “Dissociation of interaction between cellular Skp2 and cyclin A/Cdk2” value in assay [5] was “did not have this effect”. The Cell killing effect entry in the assay with U2OS cells [3] (U2OS) is recorded as “did not have significant cell killing effects”.
Regarding “KTSELLSGMGVSALEKEE (listed as Homo sapiens) [compound 4060]”, the “Preventing Skp2N from protecting cyclin A/Cdk2 from inhibition by p27” value with cyclin A/Cdk2 [2] is listed as “p27 gradually regained its inhibitory effects; also recorded: abolished this protective effect in a dose-dependent manner”. Moreover, the “Effect of peptide itself on cyclin A/Cdk2 kinase activity towards Rb-C” value with cyclin A/Cdk2 [6] is recorded as “did not”. In addition, the “Blocking of Skp2N-cyclin A interaction” value in assay [7] is recorded as “can block”. In addition, the “Blocking of binding between full-length GST-Skp2 and cyclin A/Cdk2” value in assay [7] (full-length GST-Skp2) is reported as “blocked binding”.
Turning to “KTSEAASGMGVAAAEKEE (peptide 4060AAAA) [4060 peptide with the four conserved residues mutated to alanine, reference compound]”, in the assay with cyclin A/Cdk2 [2], the “Preventing Skp2N from protecting cyclin A/Cdk2 from inhibition by p27” value was “did not have significant effects; also recorded: much weaker in disrupting the protective effect of Skp2N”. Besides, the “Blocking of Skp2N-cyclin A interaction” value in assay [7] is listed as “abolished the blocking activity”.
Consider `CC(C)C[C@H](NC(=O)[C@H](CC(=O)O)NC(=O)[C@H](CC(C)C)NC(=O)[C@H](CCCNC(=N)N)NC(=O)[C@H](CCCNC(=N)N)NC(=O)[C@H](CCCCN)NC(=O)[C@@H](NC(=O)[C@@H]1CCCN1C(=O)CNC(=O)[C@H](CCCNC(=N)N)NC(=O)[C@H](CCCNC(=N)N)NC(=O)[C@H](CCCNC(=N)N)NC(=O)[C@H](CCC(N)=O)NC(=O)[C@H](CCCNC(=N)N)NC(=O)[C@H](CCCNC(=N)N)NC(=O)[C@H](CCCCN)NC(=O)[C@H](CCCCN)NC(=O)[C@H](CCCNC(=N)N)NC(=O)CNC(=O)[C@@H](N)Cc1ccc(O)cc1)C(C)C)C(=O)O` [TAT-LDL, reference compound], for which, at cyclin A/Cdk2 [2] (1 μM peptide, cyclin A/Cdk2 ~3 nM), the “Inhibition of cyclin A/Cdk2 kinase activity towards GST-Rb-C” value is recorded as “ten-fold”. The “Cell killing effect of single peptide” value with U2OS cells [3] (U2OS, 1 or 2 μM, 24 hours) is recorded as “neither TAT-LDL nor TAT-4060 exhibited any cell killing effects”. Besides, the “Change of peptide effect by Skp2 knockdown or overexpression” value in the assay with U2OS cells [3] (U2OS) is “not affected by Skp2 knockdown or overexpression”. Moreover, the WI-38 cells killed in assay [4] was 25%.
